# From patent publication US9783527B2, “Indazole ureas and method of use” (AbbVie Inc., priority 2014, dated 2017)
# Molecular target: human Nav1.7 (Homo sapiens (Human), UniProt Q15858)
# Experiment: FRET-based membrane potential assay, recombinant human sodium channel Nav1.7
# Format: cell-based
# Settings: HEK293 cells stably expressing recombinant human Nav1.7; depolarization with veratridine (EC80) + scorpion venom
# Method in brief: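 IC50 derived by four-parameter Hill fit of percent inhibition of depolarization, measured as peak F440-480/F565-625 ratio over baseline. Stable human Nav1.7 HEK293 cells, dye-loaded with CC2-DMPE and DiSBAC2(3)/VABSC-1 at room temperature, received compound 3 min ahead of veratridine (EC80) plus scorpion venom.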
# Chain of human Nav1.7 (Q15858 whole entry): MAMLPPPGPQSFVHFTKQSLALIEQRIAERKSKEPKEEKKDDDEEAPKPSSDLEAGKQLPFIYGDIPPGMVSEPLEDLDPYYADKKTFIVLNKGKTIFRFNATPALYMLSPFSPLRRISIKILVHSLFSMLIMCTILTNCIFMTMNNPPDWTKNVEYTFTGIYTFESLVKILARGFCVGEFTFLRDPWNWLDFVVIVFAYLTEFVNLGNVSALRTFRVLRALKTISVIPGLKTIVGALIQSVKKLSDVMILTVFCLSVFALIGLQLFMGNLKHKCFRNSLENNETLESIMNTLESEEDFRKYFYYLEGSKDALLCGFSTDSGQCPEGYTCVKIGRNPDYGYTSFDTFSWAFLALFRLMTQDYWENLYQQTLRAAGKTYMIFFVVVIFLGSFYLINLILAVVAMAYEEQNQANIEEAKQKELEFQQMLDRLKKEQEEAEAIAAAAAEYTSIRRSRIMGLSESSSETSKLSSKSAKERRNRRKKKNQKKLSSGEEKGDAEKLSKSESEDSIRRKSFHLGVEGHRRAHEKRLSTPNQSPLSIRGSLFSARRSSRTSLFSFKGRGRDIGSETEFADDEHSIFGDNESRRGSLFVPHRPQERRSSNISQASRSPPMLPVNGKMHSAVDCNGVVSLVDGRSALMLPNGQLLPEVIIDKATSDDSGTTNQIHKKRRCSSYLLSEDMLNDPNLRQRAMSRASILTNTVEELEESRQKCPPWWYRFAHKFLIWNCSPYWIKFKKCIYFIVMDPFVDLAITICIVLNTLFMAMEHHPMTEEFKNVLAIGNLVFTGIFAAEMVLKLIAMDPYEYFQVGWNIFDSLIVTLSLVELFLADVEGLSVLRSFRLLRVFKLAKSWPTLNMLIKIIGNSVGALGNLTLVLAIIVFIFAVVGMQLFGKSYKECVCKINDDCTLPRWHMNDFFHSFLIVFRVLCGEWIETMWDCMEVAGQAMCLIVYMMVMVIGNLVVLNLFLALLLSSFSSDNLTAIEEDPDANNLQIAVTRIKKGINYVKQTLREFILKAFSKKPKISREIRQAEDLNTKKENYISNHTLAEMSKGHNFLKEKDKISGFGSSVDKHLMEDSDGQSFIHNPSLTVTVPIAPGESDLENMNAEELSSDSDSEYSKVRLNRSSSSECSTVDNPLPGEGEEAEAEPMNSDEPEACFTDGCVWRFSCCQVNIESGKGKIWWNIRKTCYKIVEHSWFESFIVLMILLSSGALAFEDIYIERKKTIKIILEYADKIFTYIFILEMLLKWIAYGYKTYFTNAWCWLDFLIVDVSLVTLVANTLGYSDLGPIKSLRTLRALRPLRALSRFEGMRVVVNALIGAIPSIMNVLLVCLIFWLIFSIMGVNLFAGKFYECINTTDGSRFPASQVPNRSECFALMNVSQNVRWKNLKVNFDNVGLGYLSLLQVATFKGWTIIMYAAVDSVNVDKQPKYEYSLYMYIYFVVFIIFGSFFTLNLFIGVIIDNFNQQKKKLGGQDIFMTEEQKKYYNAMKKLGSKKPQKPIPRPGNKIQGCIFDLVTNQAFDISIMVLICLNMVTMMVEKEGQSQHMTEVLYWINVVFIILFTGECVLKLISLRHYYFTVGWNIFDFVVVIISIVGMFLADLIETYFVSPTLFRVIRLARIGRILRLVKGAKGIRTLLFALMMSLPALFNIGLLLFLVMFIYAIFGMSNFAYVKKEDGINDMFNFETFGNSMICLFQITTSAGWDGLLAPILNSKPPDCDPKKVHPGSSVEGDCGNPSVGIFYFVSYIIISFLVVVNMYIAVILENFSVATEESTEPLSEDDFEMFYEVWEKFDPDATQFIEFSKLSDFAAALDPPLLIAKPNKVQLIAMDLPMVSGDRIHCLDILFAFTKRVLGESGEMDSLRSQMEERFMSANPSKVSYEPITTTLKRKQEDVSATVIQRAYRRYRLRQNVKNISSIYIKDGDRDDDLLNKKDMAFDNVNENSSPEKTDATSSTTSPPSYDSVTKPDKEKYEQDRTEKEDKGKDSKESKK
row,SMILES,IC50 [nM]
1,"O=C(C1CCC1)C(O)N1CCN(c2cccc3c2cnn3-c2ccccc2F)C1=O (centres unmarked) [Example 166, 1-(2-cyclobutyl-1-hydroxy-2-oxoethyl)-3-[1-(2-fluorophenyl)-1H-indazol-4-yl]imidazolidin-2-one]",435
2,"O=C(CN1CCN(c2cccc3c2cnn3-c2ccccc2F)C1=O)NCc1cccc(F)c1 [Example 173, N-(3-fluorobenzyl)-2-{3-[1-(2-fluorophenyl)-1H-indazol-4-yl]-2-oxoimidazolidin-1-yl}acetamide]",800
3,"Cc1scnc1CN1CCN(c2cccc3c2cnn3-c2ccccc2F)C1=O [Example 245, 1-[1-(2-fluorophenyl)-1H-indazol-4-yl]-3-[(5-methyl-1,3-thiazol-4-yl)methyl]imidazolidin-2-one]",207
4,"O=C(CC1CCCCC1)CN1CCN(c2cccc3c2cnn3-c2ccccc2F)C1=O [Example 136, 1-(3-cyclohexyl-2-oxopropyl)-3-[1-(2-fluorophenyl)-1H-indazol-4-yl]imidazolidin-2-one]",928
5,"Cc1nc(CN2CCN(c3cccc4c3cnn4-c3ccccc3F)C2=O)co1 [Example 211, 1-[1-(2-fluorophenyl)-1H-indazol-4-yl]-3-[(2-methyl-1,3-oxazol-4-yl)methyl]imidazolidin-2-one]",1900
6,"CC(C)CCCC(O)CN1CCN(c2cccc3c2cnn3-c2ccccc2F)C1=O (centres unmarked) [Example 133, 1-[1-(2-fluorophenyl)-1H-indazol-4-yl]-3-(2-hydroxy-6-methylheptyl)imidazolidin-2-one]",525
7,"CC(C)(C)c1nnc(CN2CCN(c3cccc4c3cnn4-c3ccccc3F)C2=O)o1 [Example 262, 1-[(5-tert-butyl-1,3,4-oxadiazol-2-yl)methyl]-3-[1-(2-fluorophenyl)-1H-indazol-4-yl]imidazolidin-2-one]",2520
8,"Cc1noc([C@@H](C)N2CCN(c3cccc4c3cnn4-c3ccc(F)cc3F)C2=O)n1 [Example 253, 1-[1-(2,4-difluorophenyl)-1H-indazol-4-yl]-3-[(1R)-1-(3-methyl-1,2,4-oxadiazol-5-yl)ethyl]imidazolidin-2-one]",932
9,"O=C1N(Cc2ncccn2)CCN1c1cccc2c1cnn2-c1ccccc1F [Example 218, 1-[1-(2-fluorophenyl)-1H-indazol-4-yl]-3-(pyrimidin-2-ylmethyl)imidazolidin-2-one]",2760
10,"O=C1N(CC(=O)N2CC3CCC2C3)CCN1c1cccc2c1cnn2-c1ccccc1F (centres unmarked) [Example 202, 1-[2-(2-azabicyclo[2.2.1]hept-2-yl)-2-oxoethyl]-3-[1-(2-fluorophenyl)-1H-indazol-4-yl]imidazolidin-2-one]",681
11,"CNS(=O)(=O)N1CCN(c2cccc3c2cnn3-c2ccccc2F)C1=O [Example 62, 3-[1-(2-fluorophenyl)-1H-indazol-4-yl]-N-methyl-2-oxoimidazolidine-1-sulfonamide]",1710
12,"O=C1N(Cc2ncco2)CCN1c1cccc2c1cnn2-c1ccc(C(F)(F)F)cc1 [Example 235, 1-(1,3-oxazol-2-ylmethyl)-3-{1-[4-(trifluoromethyl)phenyl]-1H-indazol-4-yl}imidazolidin-2-one]",1130
13,"O=C1N(CC(O)CC2CCCCC2)CCN1c1cccc2c1cnn2-c1ccccc1F (centres unmarked) [Example 139, 1-(3-cyclohexyl-2-hydroxypropyl)-3-[1-(2-fluorophenyl)-1H-indazol-4-yl]imidazolidin-2-one]",2410
14,"O=C1N(c2cncs2)CCN1c1cccc2c1cnn2-c1ccccc1F [Example 158, 1-[1-(2-fluorophenyl)-1H-indazol-4-yl]-3-(1,3-thiazol-5-yl)imidazolidin-2-one]",20000
15,"O=C1N(CC(=O)N2CCOC3CCCCC32)CCN1c1cccc2c1cnn2-c1ccccc1F (centres unmarked) [Example 105, 1-[1-(2-fluorophenyl)-1H-indazol-4-yl]-3-[2-(octahydro-4H-1,4-benzoxazin-4-yl)-2-oxoethyl]imidazolidin-2-one]",1330
16,"O=C1N(CC(O)C2CCC2)CCN1c1cccc2c1cnn2-c1ccccc1F (centres unmarked) [Example 165, 1-(2-cyclobutyl-2-hydroxyethyl)-3-[1-(2-fluorophenyl)-1H-indazol-4-yl]imidazolidin-2-one]",681
17,"O=C1N(Cc2cc(C(F)(F)F)ccn2)CCN1c1cccc2c1cnn2-c1ccccc1F [Example 97, 1-[1-(2-fluorophenyl)-1H-indazol-4-yl]-3-{[4-(trifluoromethyl)pyridin-2-yl]methyl}imidazolidin-2-one]",2390
18,"O=C1N(c2cccc3c2cnn3-c2ccccc2F)CCN1C1CCC(O)C1 (centres unmarked) [Example 204, 1-[1-(2-fluorophenyl)-1H-indazol-4-yl]-3-(3-hydroxycyclopentyl)imidazolidin-2-one]",3410
19,"O=C1N(Cc2cc(C3CC3)on2)CCN1c1cccc2c1cnn2-c1ccccc1F [Example 252, 1-[(5-cyclopropyl-1,2-oxazol-3-yl)methyl]-3-[1-(2-fluorophenyl)-1H-indazol-4-yl]imidazolidin-2-one]",1760

row,SMILES,IC50 [nM]
1,"CC(C)C1CCCN1C(=O)CN1CCN(c2cccc3c2cnn3-c2ccccc2F)C1=O (centres unmarked) [Example 116, 1-[1-(2-fluorophenyl)-1H-indazol-4-yl]-3-[2-(2-isopropylpyrrolidin-1-yl)-2-oxoethyl]imidazolidin-2-one]",821
2,"CC(C)CC1CCCN1C(=O)CN1CCN(c2cccc3c2cnn3-c2ccccc2F)C1=O (centres unmarked) [Example 117, 1-[1-(2-fluorophenyl)-1H-indazol-4-yl]-3-[2-(2-isobutylpyrrolidin-1-yl)-2-oxoethyl]imidazolidin-2-one]",1790
3,"CN1C(=O)[C@H]2CN(C(=O)CN3CCN(c4cccc5c4cnn5-c4ccccc4F)C3=O)C[C@H]2C1=O [Example 108, (3aR,6aS)-5-({3-[1-(2-fluorophenyl)-1H-indazol-4-yl]-2-oxoimidazolidin-1-yl}acetyl)-2-methyltetrahydropyrrolo[3,4-c]pyrrole-1,3(2H,3aH)-dione]",12300
4,"O=C1N(c2cccc3c2cnn3-c2ccccc2F)CCN1[C@H]1CCOC1 [Example 224, 1-[1-(2-fluorophenyl)-1H-indazol-4-yl]-3-[(3S)-tetrahydrofuran-3-yl]imidazolidin-2-one]",3600
5,"C[C@@H]1CN(c2cccc3c2cnn3-c2ccccc2F)C(=O)N1 [Example 246, (4R)-1-[1-(2-fluorophenyl)-1H-indazol-4-yl]-4-methylimidazolidin-2-one]",2980
6,"O=C(CN1CCN(c2cccc3c2cnn3-c2ccccc2F)C1=O)c1ccccc1 [Example 143, 1-[1-(2-fluorophenyl)-1H-indazol-4-yl]-3-(2-oxo-2-phenylethyl)imidazolidin-2-one]",874
7,"O=C1N(CC(=O)N2C[C@H](F)C[C@@H]2c2cc(F)ccc2F)CCN1c1cccc2c1cnn2-c1ccccc1F [Example 127, 1-{2-[(2R,4R)-2-(2,5-difluorophenyl)-4-fluoropyrrolidin-1-yl]-2-oxoethyl}-3-[1-(2-fluorophenyl)-1H-indazol-4-yl]imidazolidin-2-one]",1560
8,"CCS(=O)(=O)N1CCN(c2cccc3c2cnn3-c2ccccc2F)C1=O [Example 83, 1-(ethylsulfonyl)-3-[1-(2-fluorophenyl)-1H-indazol-4-yl]imidazolidin-2-one]",20000
9,"CC(C)(C)C(=O)CN1CCN(c2cccc3c2cnn3-c2ccccc2F)C1=O [Example 161, 1-(3,3-dimethyl-2-oxobutyl)-3-[1-(2-fluorophenyl)-1H-indazol-4-yl]imidazolidin-2-one]",1400
10,"O=C1N(Cc2ncco2)CCCN1c1cccc2c1cnn2-c1ccccc1F [Example 255, 1-[1-(2-fluorophenyl)-1H-indazol-4-yl]-3-(1,3-oxazol-2-ylmethyl)tetrahydropyrimidin-2(1H)-one]",5510
11,"CC1(C)CC1NC(=O)CN1CCN(c2cccc3c2cnn3-c2ccccc2F)C1=O (centres unmarked) [Example 328, N-(2,2-dimethylcyclopropyl)-2-{3-[1-(2-fluorophenyl)-1H-indazol-4-yl]-2-oxoimidazolidin-1-yl}acetamide]",3020
12,"Cc1cc(CN2CCN(c3cccc4c3cnn4-c3ccccc3F)C2=O)no1 [Example 199, 1-[1-(2-fluorophenyl)-1H-indazol-4-yl]-3-[(5-methyl-1,2-oxazol-3-yl)methyl]imidazolidin-2-one]",2970
13,"NC(=O)Cn1ccn(-c2cccc3c2cnn3-c2ccccc2F)c1=O [Example 9, 2-{3-[1-(2-fluorophenyl)-1H-indazol-4-yl]-2-oxo-2,3-dihydro-1H-imidazol-1-yl}acetamide]",959
14,"O=C1N(CC(=O)N2CCCC2c2ccccc2)CCN1c1cccc2c1cnn2-c1ccccc1F (centres unmarked) [Example 129, 1-[1-(2-fluorophenyl)-1H-indazol-4-yl]-3-[2-oxo-2-(2-phenylpyrrolidin-1-yl)ethyl]imidazolidin-2-one]",403
15,"O=C1N(CC(O)CC2CCCC2)CCN1c1cccc2c1cnn2-c1ccccc1F (centres unmarked) [Example 135, 1-(3-cyclopentyl-2-hydroxypropyl)-3-[1-(2-fluorophenyl)-1H-indazol-4-yl]imidazolidin-2-one]",904
16,"O=C(CN1CCN(c2cccc3c2cnn3-c2ccccc2F)C1=O)NCc1cc(F)ccc1F [Example 174, N-(2,5-difluorobenzyl)-2-{3-[1-(2-fluorophenyl)-1H-indazol-4-yl]-2-oxoimidazolidin-1-yl}acetamide]",849
17,"O=C1N(c2nccs2)CCN1c1cccc2c1cnn2-c1ccccc1F [Example 221, 1-[1-(2-fluorophenyl)-1H-indazol-4-yl]-3-(1,3-thiazol-2-yl)imidazolidin-2-one]",9500
18,"O=C(CC1CCC1)CN1CCN(c2cccc3c2cnn3-c2ccccc2F)C1=O [Example 140, 1-(3-cyclobutyl-2-oxopropyl)-3-[1-(2-fluorophenyl)-1H-indazol-4-yl]imidazolidin-2-one]",878
19,"O=C(CN1CCN(c2cccc3c2cnn3-c2ccccc2F)C1=O)c1ccc(C(F)(F)F)cc1 [Example 151, 1-[1-(2-fluorophenyl)-1H-indazol-4-yl]-3-{2-oxo-2-[4-(trifluoromethyl)phenyl]ethyl}imidazolidin-2-one]",20000
